Source: patent publication US12024510B2, “Pyrazolopyridine-diamides, their use as insecticide and processes for preparing the same” (PI INDUSTRIES LTD., priority 2017, dated 2024)

Legend:
Assay type in all cases: in vivo
Plutella xylostella = experiment: whole plant or invertebrate; details: foliar, cabbage leaf dip, second instar larvae, dead and moribund combined, 72 h after release
Summary of the method: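 Leaf-dip bioassay: second-instar larvae, singly, fed on cabbage leaves dipped 10 s in test dispersion (bead-milled, diluted with 0.01% Triton-X to test concentration) and dried 20 min. Held at 25 °C, 70% RH; % mortality counts dead and moribund at 72 h.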

Spodoptera litura = Spodoptera litura diet incorporation method; details: third instar larvae, dead and moribund combined, 96 h after release
Summary of the method: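 Compound milled to <2 μm average particle size in surfactant, dispersed in water (500 ppm stock dispersion), then mixed into semi-synthetic diet at ~50° C. One starved third-instar larva per diet cell, 25° C, 70% RH; percent mortality (dead plus moribund) scored at 96 h.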

Helicoverpa armigera = Helicoverpa armigera diet incorporation method; details: third instar larvae, dead and moribund combined, 96 h after release
Summary of the method: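 Third-instar larvae, starved, were placed singly on diet pieces containing test dispersion (bead-milled in surfactant, particles under 2 μm, 500 ppm stock then diluted). Trays kept at 25° C. and 70% RH; mortality counted at 96 h, moribund larvae counted with dead.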

Measured: mortality at 300 ppm

C#CCNC(=O)c1c(NC(=O)c2cc(Br)nn2-c2ncccc2Cl)c(C)cc2ccnn12 [Compound 36, 6-(3-bromo-1-(3-chloropyridin-2-yl)-1H-pyrazole-5-carboxamido)-5-methyl-N-(prop-2-yn-1-yl)pyrazolo[1,5-a]pyridine-7-carboxamide]
> 70%: all assays above

CSCCNC(=O)c1c(NC(=O)c2cc(Br)nn2-c2ncccc2Cl)c(C)cc2ccnn12 [Compound 37, 6-(3-bromo-1-(3-chloropyridin-2-yl)-1H-pyrazole-5-carboxamido)-5-methyl-N-(2-(methylthio)ethyl)pyrazolo[1,5-a]pyridine-7-carboxamide]
> 70%: all assays above

COc1cc(C(=O)Nc2c(C)cc3ccnn3c2C(=O)NCC#N)n(-c2ncccc2Cl)n1 [Compound 40, 6-(1-(3-chloropyridin-2-yl)-3-methoxy-1H-pyrazole-5-carboxamido)-N-(cyanomethyl)-5-methylpyrazolo[1,5-a]pyridine-7-carboxamide]
> 70%: all assays above

COc1cc(C(=O)Nc2c(C)cc3ccnn3c2C(=O)NCCC#N)n(-c2ncccc2Cl)n1 [Compound 41, 6-(1-(3-chloropyridin-2-yl)-3-methoxy-1H-pyrazole-5-carboxamido)-N-(2-cyanoethyl)-5-methylpyrazolo[1,5-a]pyridine-7-carboxamide]
> 70%: all assays above

CONC(=O)c1c(NC(=O)c2cc(OC)nn2-c2ncccc2Cl)c(C)cc2ccnn12 [Compound 42, 6-(1-(3-chloropyridin-2-yl)-3-methoxy-1H-pyrazole-5-carboxamido)-N-methoxy-5-methylpyrazolo[1,5-a]pyridine-7-carboxamide]
> 70%: all assays above

C=CCNC(=O)c1c(NC(=O)c2cc(OC)nn2-c2ncccc2Cl)c(C)cc2ccnn12 [Compound 44, N-allyl-6-(1-(3-chloropyridin-2-yl)-3-methoxy-1H-pyrazole-5-carboxamido)-5-methylpyrazolo[1,5-a]pyridine-7-carboxamide]
> 70%: all assays above

C#CCNC(=O)c1c(NC(=O)c2cc(OC)nn2-c2ncccc2Cl)c(C)cc2ccnn12 [Compound 45, 6-(1-(3-chloropyridin-2-yl)-3-methoxy-1H-pyrazole-5-carboxamido)-5-methyl-N-(prop-2-yn-1-yl)pyrazolo[1,5-a]pyridine-7-carboxamide]
> 70%: all assays above

COc1cc(C(=O)Nc2c(C)cc3ccnn3c2C(=O)NC2COC2)n(-c2ncccc2Cl)n1 [Compound 46, 6-(1-(3-chloropyridin-2-yl)-3-methoxy-1H-pyrazole-5-carboxamido)-5-methyl-N-(oxetan-3-yl)pyrazolo[1,5-a]pyridine-7-carboxamide]
> 70%: all assays above

CCCNC(=O)c1c(NC(=O)c2cc(Br)nn2-c2ncccc2Cl)c(Br)cc2ccnn12 [Compound 50, 5-bromo-6-(3-bromo-1-(3-chloropyridin-2-yl)-1H-pyrazole-5-carboxamido)-N-propylpyrazolo[1,5-a]pyridine-7-carboxamide]
> 70%: all assays above

CNC(=O)c1c(NC(=O)c2cc(Br)nn2-c2ncccc2Cl)c(Br)cc2ccnn12 [Compound 51, 5-bromo-6-(3-bromo-1-(3-chloropyridin-2-yl)-1H-pyrazole-5-carboxamido)-N-methylpyrazolo[1,5-a]pyridine-7-carboxamide]
> 70%: all assays above

O=C(Nc1c(Br)cc2ccnn2c1C(=O)NC1CC1)c1cc(Br)nn1-c1ncccc1Cl [Compound 52, 5-bromo-6-(3-bromo-1-(3-chloropyridin-2-yl)-1H-pyrazole-5-carboxamido)-N-cyclopropylpyrazolo[1,5-a]pyridine-7-carboxamide]
> 70%: all assays above

CC(C)(C)NC(=O)c1c(NC(=O)c2cc(Br)nn2-c2ncccc2Cl)c(Br)cc2ccnn12 [Compound 53, 5-bromo-6-(3-bromo-1-(3-chloropyridin-2-yl)-1H-pyrazole-5-carboxamido)-N-(tert-butyl)pyrazolo[1,5-a]pyridine-7-carboxamide]
> 70%: all assays above

O=C(Nc1c(Br)cc2ccnn2c1C(=O)NCC1CC1)c1cc(Br)nn1-c1ncccc1Cl [Compound 54, 5-bromo-6-(3-bromo-1-(3-chloropyridin-2-yl)-1H-pyrazole-5-carboxamido)-N-(cyclopropylmethyl)pyrazolo[1,5-a]pyridine-7-carboxamide]
> 70%: all assays above

CSCCNC(=O)c1c(NC(=O)c2cc(Br)nn2-c2ncccc2Cl)c(Br)cc2ccnn12 [Compound 55, 5-bromo-6-(3-bromo-1-(3-chloropyridin-2-yl)-1H-pyrazole-5-carboxamido)-N-(2-(methylthio)ethyl)pyrazolo[1,5-a]pyridine-7-carboxamide]
> 70%: all assays above

C=CCNC(=O)c1c(NC(=O)c2cc(Br)nn2-c2ncccc2Cl)c(Br)cc2ccnn12 [Compound 56, N-allyl-5-bromo-6-(3-bromo-1-(3-chloropyridin-2-yl)-1H-pyrazole-5-carboxamido)pyrazolo[1,5-a]pyridine-7-carboxamide]
> 70%: all assays above

C#CCNC(=O)c1c(NC(=O)c2cc(Br)nn2-c2ncccc2Cl)c(Br)cc2ccnn12 [Compound 57, 5-bromo-6-(3-bromo-1-(3-chloropyridin-2-yl)-1H-pyrazole-5-carboxamido)-N-(prop-2-yn-1-yl)pyrazolo[1,5-a]pyridine-7-carboxamide]
> 70%: all assays above

Cc1cc2ccnn2c(C(=O)NC(C)(C)C)c1NC(=O)c1cc(C(F)(F)F)nn1-c1ncccc1Cl [Compound 58, N-(tert-butyl)-6-(1-(3-chloropyridin-2-yl)-3-(trifluoromethyl)-1H-pyrazole-5-carboxamido)-5-methylpyrazolo[1,5-a]pyridine-7-carboxamide]
> 70%: all assays above

CCNC(=O)c1c(NC(=O)c2cc(C(F)(F)F)nn2-c2ncccc2Cl)c(C)cc2ccnn12 [Compound 59, 6-(1-(3-chloropyridin-2-yl)-3-(trifluoromethyl)-1H-pyrazole-5-carboxamido)-N-ethyl-5-methylpyrazolo[1,5-a]pyridine-7-carboxamide]
> 70%: all assays above

Cc1cc2ccnn2c(C(=O)NC(C)C)c1NC(=O)c1cc(C(F)(F)F)nn1-c1ncccc1Cl [Compound 60, 6-(1-(3-chloropyridin-2-yl)-3-(trifluoromethyl)-1H-pyrazole-5-carboxamido)-N-isopropyl-5-methylpyrazolo[1,5-a]pyridine-7-carboxamide]
> 70%: all assays above

Cc1cc2ccnn2c(C(=O)NC2CC2)c1NC(=O)c1cc(C(F)(F)F)nn1-c1ncccc1Cl [Compound 61, 6-(1-(3-chloropyridin-2-yl)-3-(trifluoromethyl)-1H-pyrazole-5-carboxamido)-N-cyclopropyl-5-methylpyrazolo[1,5-a]pyridine-7-carboxamide]
> 70%: all assays above

Cc1cc2ccnn2c(C(=O)NCC2CC2)c1NC(=O)c1cc(C(F)(F)F)nn1-c1ncccc1Cl [Compound 62, 6-(1-(3-chloropyridin-2-yl)-3-(trifluoromethyl)-1H-pyrazole-5-carboxamido)-N-(cyclopropylmethyl)-5-methylpyrazolo[1,5-a]pyridine-7-carboxamide]
> 70%: all assays above

CNC(=O)c1c(NC(=O)c2cc(C(F)(F)F)nn2-c2ncccc2Cl)c(C)cc2ccnn12 [Compound 63, 6-(1-(3-chloropyridin-2-yl)-3-(trifluoromethyl)-1H-pyrazole-5-carboxamido)-N,5-dimethylpyrazolo[1,5-a]pyridine-7-carboxamide]
> 70%: all assays above

Cc1cc2ccnn2c(C(=O)NCC2CC2)c1NC(=O)c1cc(N2CC(F)(F)C2)nn1-c1ncccc1Cl [Compound 67, 6-(1-(3-chloropyridin-2-yl)-3-(3,3-difluoroazetidin-1-yl)-1H-pyrazole-5-carboxamido)-N-(cyclopropylmethyl)-5-methylpyrazolo[1,5-a]pyridine-7-carboxamide]
> 70%: all assays above

CNC(=O)c1c(NC(=O)c2cc(N3CC(F)(F)C3)nn2-c2ncccc2Cl)c(C)cc2ccnn12 [Compound 68, 6-(1-(3-chloropyridin-2-yl)-3-(3,3-difluoroazetidin-1-yl)-1H-pyrazole-5-carboxamido)-N,5-dimethylpyrazolo[1,5-a]pyridine-7-carboxamide]
> 70%: all assays above
